Measured values reported in patent US12685741B2, “N-acetylneuraminic acid compositions and methods of use” (LifeScience AS, priority 2017, dated 2026).

What was measured:
[1] = cited from earlier work
[2] = rat, in vivo, cited from earlier work
[3] = cited from earlier work; remark: listed apart in the source
herpes = assay: Oral NANA in a subject with chronic herpes outbreaks; format: in vivo, human; conditions: daily dose of 3 grams, outbreaks approximately every other week for 10 years before
Procedure: A daily dose of 3 grams NANA was administered to a subject suffering from chronic herpes outbreaks which had occurred approximately every other week for 10 years.

CC(=O)N[C@H]1[C@H]([C@H](O)[C@H](O)CO)OC(O)(C(=O)O)C[C@@H]1O (stereo partly drawn) [NANA, N-acetylneuraminic acid]
absorption after ingestion ([1]; in vivo): rapidly absorbed | excretion ([1]; via urine): quickly excreted | toxic effects ([2]; po): No toxic effects have been detected | NOAEL [2]: 974 mg/kg body weight/day | solubility in water [3]: Easily soluble in water | herpes outbreaks (herpes): has not had a herpes outbreak for two months
